# Test results published in patent publication US8129417B2, “Substituted octahydrocyclopenta[C]pyrrol-4-amines as calcium channel blockers” (Abbott Laboratories, priority 2008, dated 2012).
# Molecular target: human Cav2.2 (Homo sapiens, UniProt Q00975)
# Test: Assessment of calcium channel activity using FLIPR (Ca2+ influx in IMR32 cells)
# Type: cell-based
# Settings: 60 minute pre-incubation with compound, 2 μM nifedipine, depolarized with 80 mM KCl
# How it was run: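 IMR32 neuroblastoma cells seeded at 1-1.2×10^5 cells/well and grown 48 h at 37 °C before FLIPR Ca2+ influx read. Percent inhibition at each concentration vs no-inhibitor activity; IC50 by non-linear sigmoidal dose-response fit.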
# Chain of human Cav2.2 (Q00975 whole entry): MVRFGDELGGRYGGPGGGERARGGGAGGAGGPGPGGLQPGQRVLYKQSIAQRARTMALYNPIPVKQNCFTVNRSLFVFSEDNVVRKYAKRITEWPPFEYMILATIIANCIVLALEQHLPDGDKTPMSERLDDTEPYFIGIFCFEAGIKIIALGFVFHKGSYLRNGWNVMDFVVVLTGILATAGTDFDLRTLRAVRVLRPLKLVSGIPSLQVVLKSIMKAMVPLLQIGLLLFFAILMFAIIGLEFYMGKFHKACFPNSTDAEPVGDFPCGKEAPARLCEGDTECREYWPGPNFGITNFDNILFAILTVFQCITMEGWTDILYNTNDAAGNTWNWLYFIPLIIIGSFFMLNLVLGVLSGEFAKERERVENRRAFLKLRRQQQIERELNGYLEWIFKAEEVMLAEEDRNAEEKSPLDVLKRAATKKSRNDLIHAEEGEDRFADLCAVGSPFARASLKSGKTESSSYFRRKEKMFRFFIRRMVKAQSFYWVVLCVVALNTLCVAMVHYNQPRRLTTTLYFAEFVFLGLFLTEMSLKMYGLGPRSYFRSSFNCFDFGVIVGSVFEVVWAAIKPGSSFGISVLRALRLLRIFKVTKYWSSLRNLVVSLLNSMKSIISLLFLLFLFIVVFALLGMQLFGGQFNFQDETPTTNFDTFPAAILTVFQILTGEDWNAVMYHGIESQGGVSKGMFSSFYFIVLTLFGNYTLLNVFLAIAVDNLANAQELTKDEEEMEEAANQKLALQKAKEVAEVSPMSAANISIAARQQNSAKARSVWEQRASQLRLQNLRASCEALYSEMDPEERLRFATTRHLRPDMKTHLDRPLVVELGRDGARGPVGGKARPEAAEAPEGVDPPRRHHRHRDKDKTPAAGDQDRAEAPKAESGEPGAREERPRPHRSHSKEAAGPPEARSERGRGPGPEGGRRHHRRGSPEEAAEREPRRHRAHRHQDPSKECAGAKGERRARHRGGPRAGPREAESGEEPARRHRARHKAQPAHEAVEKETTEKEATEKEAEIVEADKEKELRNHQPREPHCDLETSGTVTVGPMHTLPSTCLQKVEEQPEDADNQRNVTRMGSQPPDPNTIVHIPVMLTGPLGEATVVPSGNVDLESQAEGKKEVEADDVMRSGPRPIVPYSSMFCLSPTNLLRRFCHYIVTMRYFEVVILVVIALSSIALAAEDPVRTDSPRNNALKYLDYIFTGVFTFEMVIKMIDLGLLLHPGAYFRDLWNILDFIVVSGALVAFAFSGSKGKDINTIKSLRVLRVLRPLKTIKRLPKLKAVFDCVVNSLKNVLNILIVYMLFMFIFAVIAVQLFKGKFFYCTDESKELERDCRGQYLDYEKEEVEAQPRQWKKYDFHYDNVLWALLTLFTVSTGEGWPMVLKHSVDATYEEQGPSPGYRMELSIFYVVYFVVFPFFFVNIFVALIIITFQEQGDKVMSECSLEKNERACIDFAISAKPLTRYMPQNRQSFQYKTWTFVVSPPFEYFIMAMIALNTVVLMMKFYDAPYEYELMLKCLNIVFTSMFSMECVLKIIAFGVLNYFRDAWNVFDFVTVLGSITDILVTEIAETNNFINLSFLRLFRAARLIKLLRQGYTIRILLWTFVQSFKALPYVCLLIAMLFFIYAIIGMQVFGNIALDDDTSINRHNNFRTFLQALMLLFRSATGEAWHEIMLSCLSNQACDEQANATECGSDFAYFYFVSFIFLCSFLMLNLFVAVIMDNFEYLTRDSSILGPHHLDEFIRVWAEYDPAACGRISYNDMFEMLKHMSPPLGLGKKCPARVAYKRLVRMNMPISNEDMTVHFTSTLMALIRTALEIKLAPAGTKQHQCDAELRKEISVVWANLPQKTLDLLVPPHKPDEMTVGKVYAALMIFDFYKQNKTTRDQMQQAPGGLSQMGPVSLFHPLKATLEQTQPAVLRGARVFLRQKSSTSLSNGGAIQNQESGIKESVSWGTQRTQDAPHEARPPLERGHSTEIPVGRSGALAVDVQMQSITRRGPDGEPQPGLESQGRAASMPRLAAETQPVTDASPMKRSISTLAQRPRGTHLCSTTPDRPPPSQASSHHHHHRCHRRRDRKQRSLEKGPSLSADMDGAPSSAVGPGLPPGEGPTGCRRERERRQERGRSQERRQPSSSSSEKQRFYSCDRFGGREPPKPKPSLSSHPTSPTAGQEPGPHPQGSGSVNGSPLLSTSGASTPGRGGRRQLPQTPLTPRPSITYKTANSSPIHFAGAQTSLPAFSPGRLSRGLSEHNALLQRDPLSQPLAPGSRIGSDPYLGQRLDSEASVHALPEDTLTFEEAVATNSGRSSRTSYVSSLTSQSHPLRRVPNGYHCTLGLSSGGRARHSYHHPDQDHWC
# Chain of human Cav2.2 (P54289 25-946 partner limits assumed): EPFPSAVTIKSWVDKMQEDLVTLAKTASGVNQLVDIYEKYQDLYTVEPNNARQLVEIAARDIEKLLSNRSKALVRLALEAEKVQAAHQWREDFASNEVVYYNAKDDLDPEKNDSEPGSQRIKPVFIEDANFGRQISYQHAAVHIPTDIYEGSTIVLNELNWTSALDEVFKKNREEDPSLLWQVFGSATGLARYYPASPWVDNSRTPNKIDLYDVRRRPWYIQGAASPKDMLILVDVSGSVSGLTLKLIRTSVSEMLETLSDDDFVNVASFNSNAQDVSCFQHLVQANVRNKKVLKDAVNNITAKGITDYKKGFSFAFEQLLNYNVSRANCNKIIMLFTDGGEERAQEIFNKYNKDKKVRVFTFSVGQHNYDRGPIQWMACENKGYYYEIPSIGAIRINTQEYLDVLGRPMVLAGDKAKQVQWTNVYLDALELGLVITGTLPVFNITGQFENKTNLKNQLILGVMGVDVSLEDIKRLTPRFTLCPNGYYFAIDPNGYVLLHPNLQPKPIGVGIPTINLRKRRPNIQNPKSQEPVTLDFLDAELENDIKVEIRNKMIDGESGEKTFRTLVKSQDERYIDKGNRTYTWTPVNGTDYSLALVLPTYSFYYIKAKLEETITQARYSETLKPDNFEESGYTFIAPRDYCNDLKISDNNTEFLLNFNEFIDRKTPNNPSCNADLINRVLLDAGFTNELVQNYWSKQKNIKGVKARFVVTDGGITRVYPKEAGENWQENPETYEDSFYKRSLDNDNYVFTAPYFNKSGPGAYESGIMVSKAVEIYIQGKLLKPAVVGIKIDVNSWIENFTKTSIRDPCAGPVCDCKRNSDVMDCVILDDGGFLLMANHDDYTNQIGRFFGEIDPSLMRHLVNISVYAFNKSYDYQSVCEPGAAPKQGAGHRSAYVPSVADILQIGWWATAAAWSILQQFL
# Chain of human Cav2.2 (P54289 947-1103 partner limits assumed): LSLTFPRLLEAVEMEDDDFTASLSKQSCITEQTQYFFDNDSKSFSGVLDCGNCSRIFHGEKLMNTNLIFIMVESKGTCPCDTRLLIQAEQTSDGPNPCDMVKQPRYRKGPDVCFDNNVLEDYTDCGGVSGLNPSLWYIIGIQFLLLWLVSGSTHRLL
# Chain of human Cav2.2 (P54284 whole entry partner): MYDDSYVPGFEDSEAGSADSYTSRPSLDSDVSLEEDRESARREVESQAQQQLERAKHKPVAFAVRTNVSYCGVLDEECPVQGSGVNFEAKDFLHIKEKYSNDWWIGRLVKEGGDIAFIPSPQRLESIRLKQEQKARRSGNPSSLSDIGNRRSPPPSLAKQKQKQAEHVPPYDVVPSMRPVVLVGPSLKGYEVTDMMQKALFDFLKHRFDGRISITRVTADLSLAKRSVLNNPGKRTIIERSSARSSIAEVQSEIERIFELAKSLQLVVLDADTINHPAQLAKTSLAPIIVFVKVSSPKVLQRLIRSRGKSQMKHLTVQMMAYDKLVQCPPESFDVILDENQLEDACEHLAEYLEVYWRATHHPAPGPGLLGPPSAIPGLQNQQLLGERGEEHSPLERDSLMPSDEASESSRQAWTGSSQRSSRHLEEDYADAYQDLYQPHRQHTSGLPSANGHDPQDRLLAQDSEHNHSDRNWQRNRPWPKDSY
row,SMILES,IC50
1,"CN[C@@H](CC(C)C)C(=O)N[C@@H]1CC[C@H]2CN(Cc3ccc(F)c(C(F)(F)F)c3)C[C@H]21 [Example 375, N^1-{(3aS,4R,6aR)-2-[4-fluoro-3-(trifluoromethyl)benzyl]octahydrocyclopenta[c]pyrrol-4-yl}-N^2-methyl-L-leucinamide]",8.22 µM
2,"CCN[C@@H](CC(C)C)C(=O)N[C@H]1CC[C@@H]2CN(S(=O)(=O)c3cccc(C(F)(F)F)c3)C[C@@H]21 [Example 383, N^2-ethyl-N^1-((3aR,4S,6aS)-2-{[3-(trifluoromethyl)phenyl]sulfonyl}octahydrocyclopenta[c]pyrrol-4-yl)-L-leucinamide]",0.8 µM
3,"CN[C@@H](CC(C)C)C(=O)N[C@H]1CC[C@@H]2CN(S(=O)(=O)c3cccc(C(F)(F)F)c3)C[C@@H]21 [Example 384, N^2-methyl-N^1-((3aR,4S,6aS)-2-{[3-(trifluoromethyl)phenyl]sulfonyl}octahydrocyclopenta[c]pyrrol-4-yl)-L-leucinamide]",1.14 µM
4,"N[C@@H](Cc1ccccc1)C(=O)N[C@H]1CC[C@@H]2CN(S(=O)(=O)c3cccc(C(F)(F)F)c3)C[C@@H]21 [Example 385, N-((3aR,4S,6aS)-2-{[3-(trifluoromethyl)phenyl]sulfonyl}octahydrocyclopenta[c]pyrrol-4-yl)-L-phenylalaninamide]",1.85 µM
5,"CC(C)[C@H](N)CC(=O)N[C@H]1CC[C@@H]2CN(S(=O)(=O)c3cccc(C(F)(F)F)c3)C[C@@H]21 [Example 388, (3R)-3-amino-4-methyl-N-((3aR,4S,6aS)-2-{[3-(trifluoromethyl)phenyl]sulfonyl}octahydrocyclopenta[c]pyrrol-4-yl)pentanamide]",4.53 µM
6,"O=C(N[C@H]1CC[C@@H]2CN(S(=O)(=O)c3cccc(C(F)(F)F)c3)C[C@@H]21)[C@@H]1CCCCN1 [Example 390, (2S)—N-((3aR,4S,6aS)-2-{[3-(trifluoromethyl)phenyl]sulfonyl}octahydrocyclopenta[c]pyrrol-4-yl)piperidine-2-carboxamide]",2.46 µM
7,"CCCC[C@H](NC)C(=O)N[C@H]1CC[C@@H]2CN(S(=O)(=O)c3cccc(C(F)(F)F)c3)C[C@@H]21 [Example 393, N^2-methyl-N^1-((3aR,4S,6aS)-2-{[3-(trifluoromethyl)phenyl]sulfonyl}octahydrocyclopenta[c]pyrrol-4-yl)-L-norleucinamide]",1.08 µM
8,"CCC[C@H](NC)C(=O)N[C@H]1CC[C@@H]2CN(S(=O)(=O)c3cccc(C(F)(F)F)c3)C[C@@H]21 [Example 394, N^2-methyl-N^1-((3aR,4S,6aS)-2-{[3-(trifluoromethyl)phenyl]sulfonyl}octahydrocyclopenta[c]pyrrol-4-yl)-L-norvalinamide]",0.98 µM
9,"CN[C@@H](CC(C)C)C(=O)N[C@H]1CC[C@@H]2CN(S(=O)(=O)c3ccc(C(F)(F)F)cc3)C[C@@H]21 [Example 395, N^2-methyl-N^1-((3aR,4S,6aS)-2-{[4-(trifluoromethyl)phenyl]sulfonyl}octahydrocyclopenta[c]pyrrol-4-yl)-L-leucinamide]",2.12 µM
10,"O=C(N[C@@H]1CC[C@H]2CN(S(=O)(=O)c3cccc(C(F)(F)F)c3)C[C@H]21)[C@@H]1CCCN1 [Example 396, N-((3aS,4R,6aR)-2-{[3-(trifluoromethyl)phenyl]sulfonyl}octahydrocyclopenta[c]pyrrol-4-yl)-L-prolinamide]",3.55 µM
11,"O=C(N[C@@H]1CC[C@H]2CN(S(=O)(=O)c3cccc(C(F)(F)F)c3)C[C@H]21)[C@@H]1CCCCN1 [Example 398, (2S)—N-((3aS,4R,6aR)-2-{[3-(trifluoromethyl)phenyl]sulfonyl}octahydrocyclopenta[c]pyrrol-4-yl)piperidine-2-carboxamide]",3.25 µM
12,"CN[C@H](C(=O)N[C@@H]1CC[C@H]2CN(S(=O)(=O)c3ccc(F)cc3)C[C@H]21)C(C)C [Example 400, N^1-{(3aS,4R,6aR)-2-[(4-fluorophenyl)sulfonyl]octahydrocyclopenta[c]pyrrol-4-yl}-N^2-methyl-L-valinamide]",6.86 µM
13,"CN[C@H](C(=O)N[C@@H]1CC[C@H]2CN(S(=O)(=O)c3ccc(C(F)(F)F)cc3)C[C@H]21)C(C)C [Example 402, N^2-methyl-N^1-((3aS,4R,6aR)-2-{[4-(trifluoromethyl)phenyl]sulfonyl}octahydrocyclopenta[c]pyrrol-4-yl)-L-valinamide]",2.06 µM
14,"CCC[C@H](NC)C(=O)N[C@@H]1CC[C@H]2CN(S(=O)(=O)c3ccc(C(F)(F)F)cc3)C[C@H]21 [Example 404, N^2-methyl-N^1-((3aS,4R,6aR)-2-{[4-(trifluoromethyl)phenyl]sulfonyl}octahydrocyclopenta[c]pyrrol-4-yl)-L-norvalinamide]",1.02 µM
15,"CN[C@H](C(=O)N[C@@H]1CC[C@H]2CN(S(=O)(=O)c3cccc(C(F)(F)F)c3)C[C@H]21)C(C)C [Example 406, N^2-methyl-N^1-((3aS,4R,6aR)-2-{[3-(trifluoromethyl)phenyl]sulfonyl}octahydrocyclopenta[c]pyrrol-4-yl)-L-valinamide]",3.69 µM
16,"CN[C@@H](CC(C)C)C(=O)N[C@@H]1CC[C@H]2CN(S(=O)(=O)c3ccc(F)c(C(F)(F)F)c3)C[C@H]21 [Example 407, N^1-((3aS,4R,6aR)-2-{[4-fluoro-3-(trifluoromethyl)phenyl]sulfonyl}octahydrocyclopenta[c]pyrrol-4-yl)-N^2-methyl-L-leucinamide]",5.43 µM
17,"CC(C)(C)[C@H](N)C(=O)N[C@H]1CC[C@@H]2CN(S(=O)(=O)c3ccc(C(F)(F)F)cc3)C[C@@H]21 [Example 408, 3-methyl-N^1-((3aR,4S,6aS)-2-{[4-(trifluoromethyl)phenyl]sulfonyl}octahydrocyclopenta[c]pyrrol-4-yl)-L-valinamide]",5.11 µM
18,"CC(C)(C)[C@H](N)C(=O)N[C@@H]1CC[C@H]2CN(S(=O)(=O)c3ccc(C(F)(F)F)cc3)C[C@H]21 [Example 409, 3-methyl-N^1-((3aS,4R,6aR)-2-{[4-(trifluoromethyl)phenyl]sulfonyl}octahydrocyclopenta[c]pyrrol-4-yl)-L-valinamide]",5.02 µM
19,"CC[C@H](C)[C@H](NC)C(=O)N[C@H]1CC[C@@H]2CN(S(=O)(=O)c3cccc(C(F)(F)F)c3)C[C@@H]21 [Example 410, N^2-methyl-N^1-((3aR,4S,6aS)-2-{[3-(trifluoromethyl)phenyl]sulfonyl}octahydrocyclopenta[c]pyrrol-4-yl)-L-isoleucinamide]",1.8 µM
20,"CC[C@H](C)[C@H](NC)C(=O)N[C@H]1CC[C@@H]2CN(S(=O)(=O)c3ccc(C(F)(F)F)cc3)C[C@@H]21 [Example 411, N^2-methyl-N^1-((3aR,4S,6aS)-2-{[4-(trifluoromethyl)phenyl]sulfonyl}octahydrocyclopenta[c]pyrrol-4-yl)-L-isoleucinamide]",4.22 µM
21,"CN[C@@H](CC(C)(C)C)C(=O)N[C@H]1CC[C@@H]2CN(S(=O)(=O)c3cccc(C(F)(F)F)c3)C[C@@H]21 [Example 414, N^2,4-dimethyl-N^1-((3aR,4S,6aS)-2-{[3-(trifluoromethyl)phenyl]sulfonyl}octahydrocyclopenta[c]pyrrol-4-yl)-L-leucinamide]",0.9 µM
22,"CN[C@@H](CC(C)(C)C)C(=O)N[C@@H]1CC[C@H]2CN(S(=O)(=O)c3cccc(C(F)(F)F)c3)C[C@H]21 [Example 416, N^2,4-dimethyl-N^1-((3aS,4R,6aR)-2-{[3-(trifluoromethyl)phenyl]sulfonyl}octahydrocyclopenta[c]pyrrol-4-yl)-L-leucinamide]",1.33 µM
23,"CN[C@@H](CC(C)(C)C)C(=O)N[C@@H]1CC[C@H]2CN(S(=O)(=O)c3ccc(C(F)(F)F)cc3)C[C@H]21 [Example 417, N^2,4-dimethyl-N^1-((3aS,4R,6aR)-2-{[4-(trifluoromethyl)phenyl]sulfonyl}octahydrocyclopenta[c]pyrrol-4-yl)-L-leucinamide]",1.16 µM
24,"CCCC[C@H](NC)C(=O)N[C@H]1CC[C@@H]2CN(S(=O)(=O)c3ccc(C(F)(F)F)cc3)C[C@@H]21 [Example 418, N^2-methyl-N^1-((3aR,4S,6aS)-2-{[4-(trifluoromethyl)phenyl]sulfonyl}octahydrocyclopenta[c]pyrrol-4-yl)-L-norleucinamide]",0.82 µM
25,"CC(C)(C)C[C@H](N)C(=O)N[C@H]1CC[C@@H]2CN(S(=O)(=O)c3ccc(C(F)(F)F)cc3)C[C@@H]21 [Example 419, 4-methyl-N^1-((3aR,4S,6aS)-2-{[4-(trifluoromethyl)phenyl]sulfonyl}octahydrocyclopenta[c]pyrrol-4-yl)-L-leucinamide]",0.8 µM
26,"CCC[C@H](NC)C(=O)N[C@@H]1CC[C@@H]2CN(S(=O)(=O)c3ccc(C(F)(F)F)cc3)C[C@@H]21 [Example 420, N^2-methyl-N^1-((3aR,4R,6aS)-2-{[4-(trifluoromethyl)phenyl]sulfonyl}octahydrocyclopenta[c]pyrrol-4-yl)-L-norvalinamide]",5.7 µM
27,"CN[C@@H](CC(C)C)C(=O)N[C@@H]1CC[C@@H]2CN(S(=O)(=O)c3ccc(C(F)(F)F)cc3)C[C@@H]21 [Example 421, N^2-methyl-N^1-((3aR,4R,6aS)-2-{[4-(trifluoromethyl)phenyl]sulfonyl}octahydrocyclopenta[c]pyrrol-4-yl)-L-leucinamide]",2.56 µM
28,"CCC[C@H](N)C(=O)N[C@H]1CC[C@@H]2CN(S(=O)(=O)c3cccc(C(F)(F)F)c3)C[C@@H]21 [Example 424, N^1-((3aR,4S,6aS)-2-{[3-(trifluoromethyl)phenyl]sulfonyl}octahydrocyclopenta[c]pyrrol-4-yl)-L-norvalinamide]",3.11 µM
29,"CCC[C@H](N)C(=O)N[C@@H]1CC[C@H]2CN(S(=O)(=O)c3cccc(C(F)(F)F)c3)C[C@H]21 [Example 425, N^1-((3aS,4R,6aR)-2-{[3-(trifluoromethyl)phenyl]sulfonyl}octahydrocyclopenta[c]pyrrol-4-yl)-L-norvalinamide]",3.21 µM
